Reference: US20150272874A1, “PULMONARY DISEASE-SPECIFIC THERAPEUTIC AGENT” (CARDIO INCORPORATED, priority 2012, published 2015)
“And” between values parts separate entries of the source, which are not always exact repeats. Equal entries are not always repeated. Structures can show the parent of a compound that is named as a salt. Each block holds one compound with its values, some of them ahead of it.

How the values were obtained:
[1] = tested on: monocrotaline (MCT) pulmonary hypertension models; test: Pharmacological Effect Test 5: combined effect of ozagrel hydrochloride with Compounds 3 and 7, survival; type: in vivo, Slc;Wistar female rats; conditions: oral twice a day until Day 42; Compound 3 or 7 0.1 mg/kg, ozagrel hydrochloride 100 mg/kg, alone or combined
Experimental: After Slc;Wistar female rats (5 weeks old) were anesthetized with inhaled isoflurane, an aqueous monocrotaline (MCT) solution was subcutaneously administered into the dorsal region of each rat at a dose of 60 mg/kg (an injection volume of 3 mL/Kg) using a disposable syringe and a 27G disposable injection needle to prepare pulmonary hypertension models.
From immediately after the MCT administration until Day 42, test substances were repeatedly administered orally twice a day as shown in the following table.
The test substances were suspended in 0.5% aqueous CMC-Na solutions, and the aqueous solutions were orally administered repeatedly at a dose of 5 mL/kg.

[2] = Maximum tolerated oral dose without blood-pressure-lowering effect; type: in vivo
TXA2 synthetase = target: T1, TXA2 synthetase (Rattus norvegicus, UniProt P49430); test: Dose completely inhibiting TXA2 synthetase; type: in vivo; conditions: oral dose
T1 construct: endogenous in cells; host or cells: Whole animal dosed in vivo (rat inferred)
T1 sequence (P49430 1-533): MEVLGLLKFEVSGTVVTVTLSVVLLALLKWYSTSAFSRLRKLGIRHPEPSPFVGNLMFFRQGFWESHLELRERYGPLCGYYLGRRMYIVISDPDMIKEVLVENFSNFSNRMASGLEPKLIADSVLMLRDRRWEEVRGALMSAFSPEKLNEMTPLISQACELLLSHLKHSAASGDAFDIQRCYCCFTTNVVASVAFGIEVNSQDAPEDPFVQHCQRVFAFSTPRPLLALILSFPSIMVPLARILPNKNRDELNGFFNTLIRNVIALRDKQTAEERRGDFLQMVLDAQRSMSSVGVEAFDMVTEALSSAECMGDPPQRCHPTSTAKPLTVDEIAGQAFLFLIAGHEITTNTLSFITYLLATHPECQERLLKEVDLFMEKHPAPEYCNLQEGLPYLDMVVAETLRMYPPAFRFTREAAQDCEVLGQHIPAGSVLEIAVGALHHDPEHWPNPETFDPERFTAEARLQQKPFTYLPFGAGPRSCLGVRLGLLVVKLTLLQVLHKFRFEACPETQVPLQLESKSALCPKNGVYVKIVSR

blood TXA2 concentration = conditions: MCT rat models; Am J Respir Crit Care Med 172, 1575-1580 (2005); cited from earlier work
[3] = Pharmacological Effect Test 3: Compound 1 content of the lungs (LC/MS/MS); type: in vivo, Slc;Wistar male rats; conditions: for Concentration of Compound 1 in the tissue: lung, individual animals, 1 mg/kg
Experimental: Further, the Compound 1 contents of the lungs in Groups 3 and 4 were measured.
A four-fold amount of a mixture of distilled water and ethanol relative to the lung weight was added to form a homogenate. Acetonitrile was added to a part of the homogenate and the resulting mixture was stirred. The centrifuged supernatant was collected and concentrated. After the concentrate was dissolved in a solvent, LC/MS/MS measurement was performed under the same conditions as in Preparation Test Example 2 to determine Compound 1 content of the lungs.

[4] = tested on: Normal human newborn foreskin dermal fibroblasts (Fibrocell NHDF (NB)); test: Pharmacological Effect Test 6: production of cytokines (ELISA) and PGs (EIA); type: cell-based; conditions: 1 μM, 72 hours, n=3, M ± S.E.
Experimental: Normal human newborn foreskin dermal fibroblasts (Fibrocell NHDF (NB)) provided from Kurabo Industries, Ltd., were cultured to confluency at […] (DMEM 10% FBS). Twenty-four hours after replacing the medium with (serum-free) DMEM, the medium was replaced with DMEM (0.2% FBS), and Compound 1 (1 μM) and a solvent (DMSO) was added. The cells were cultured for 72 hours (n=3).
Cytokines in the culture were measured by ELISA, and prostaglandins were measured by EIA.
PGI2 was measured by using a degradation product of PGI2 (6-keto-PGF1α).

[5] = cited from earlier work
[6] = cited from earlier work; remark: listed apart in the source
[7] = tested on: MCT-induced mild pulmonary hypertension model; conditions: mild disease model; Am J Respir Crit Care Med 169: 34-38-2004; cited from earlier work

SMILES: CCCC[C@H](C)C[C@H](O)/C=C/[C@H]1[C@H](O)CC(=O)[C@@H]1CC(=O)CCCCC(=O)OC [Compound 7, 17S,20-dimethyl-6-oxo-prostaglandin E1 methyl ester]
survival rate vs medium-administered group [1]: no survival prolongation effect
maximum tolerated dose that does not show blood-pressure-lowering effect [2]: 0.1 mg/kg

SMILES: O=C(O)/C=C/c1ccc(Cn2ccnc2)cc1 [ozagrel hydrochloride]
survival rate vs medium-administered group [1]: no survival prolongation effect
amount that completely inhibits the TXA2 synthetase (TXA2 synthetase): 100 mg/kg

average concentration in lung tissue ([3]; Group 3: Preparation Example 1 single i.v. 1 mg/kg): 76.35 ng/g
average concentration in lung tissue ([3]; Group 4: Preparation Example 1 single s.c. 1 mg/kg): 0.659 ng/g
concentration in lung tissue, intravenous compared to subcutaneous injection ([3]; i.v. 1 mg/kg vs s.c. 1 mg/kg): about 120 fold
ratio of Group 3 to Group 4, concentration in lung tissue ([3]; i.v. 1 mg/kg vs s.c. 1 mg/kg): 115.9
Concentration of Compound 1 in the tissue ([3]; Group 4 (1 mg/kg) as printed, Preparation Example 1): 1.06 ng/g and 0.258 ng/g
SMILES: O=C(O)COc1cccc2c1CCC=C2CCO/N=C(\c1ccccc1)c1cccnc1 [Compound 1, (E)-[5-[2-[1-phenyl-1-(3-pyridyl)methylideneaminooxy]ethyl]-7,8-dihydronaphthalen-1-yloxy]acetic acid]
blood TXA2 concentration (blood TXA2 concentration): inhibits an increase
Concentration of Compound 1 in the tissue ([3]; Group 3 (1 mg/kg) of Preparation Example 1): 50.0 ng/g and 99.2 ng/g and 45.2 ng/g and 111 ng/g
6-keto-PGF1α (PGI2) [4]: 44.5 ± 4.014 pg/mL
G-CSF [4]: 28.71 ± 6.110 pg/mL
HGF [4]: 102.60 ± 15.658 pg/mL
HMGB1 [4]: 1.480 ± 0.147 ng/mL
PGE2 [4]: 38.1 ± 6.392
SDF-1α [4]: 2457.46 ± 231.884 pg/mL
VEGF [4]: 38.44 ± 11.857 pg/mL

SMILES: CCCCC[C@H](O)/C=C/[C@@H]1[C@H]2C/C(=C/CCCC(=O)O)O[C@H]2C[C@H]1O [Epoprostenol sodium, reference compound]
half-life [5]: about 6 minutes
blood TXA2 concentration (blood TXA2 concentration): further increases

SMILES: CC#CC[C@@H](C)[C@H](O)/C=C/[C@@H]1[C@H]2c3cccc(CCCC(=O)[O-])c3O[C@H]2C[C@H]1O.[Na+] (racemic) [Compound 3, sodium (±)-(1R,2R,3aS,8bS)-2,3,3a,8b-tetrahydro-2-hydroxy-1-[(E)-(3S,4RS)-3-hydroxy-4-methyl-1-octen-6-ynyl]-1H-cyclopenta[b]benzofuran-5-butanoate]
long-term effects ([6]; after 1 year): no significant difference
exercise tolerance ([6]; relatively short-term (after 12 weeks)): improved
combined effect with a PDEV inhibitor (sildenafil) [7]: synergistic effect
efficacy administered alone [7]: efficacious
survival rate vs medium-administered group [1]: no survival prolongation effect
MTD ([2]; Slc:Wistar, rat, in vivo, read-out: maximum tolerated dose that does not show blood-pressure-lowering effect): 0.1 mg/kg
